From ChEMBL document CHEMBL1909046, “DrugMatrix in vitro pharmacology data”

target: T1, Alpha-1B adrenergic receptor (Rattus norvegicus, UniProt P15823); assay: DRUGMATRIX: Alpha-1B adrenergic receptor radioligand binding (ligand: prazosin); assay type: cell membranes, Wistar, Liver, Membrane; conditions: Not Active = under 50% inhibition at 10 µM
T1 sequence (P15823 whole entry): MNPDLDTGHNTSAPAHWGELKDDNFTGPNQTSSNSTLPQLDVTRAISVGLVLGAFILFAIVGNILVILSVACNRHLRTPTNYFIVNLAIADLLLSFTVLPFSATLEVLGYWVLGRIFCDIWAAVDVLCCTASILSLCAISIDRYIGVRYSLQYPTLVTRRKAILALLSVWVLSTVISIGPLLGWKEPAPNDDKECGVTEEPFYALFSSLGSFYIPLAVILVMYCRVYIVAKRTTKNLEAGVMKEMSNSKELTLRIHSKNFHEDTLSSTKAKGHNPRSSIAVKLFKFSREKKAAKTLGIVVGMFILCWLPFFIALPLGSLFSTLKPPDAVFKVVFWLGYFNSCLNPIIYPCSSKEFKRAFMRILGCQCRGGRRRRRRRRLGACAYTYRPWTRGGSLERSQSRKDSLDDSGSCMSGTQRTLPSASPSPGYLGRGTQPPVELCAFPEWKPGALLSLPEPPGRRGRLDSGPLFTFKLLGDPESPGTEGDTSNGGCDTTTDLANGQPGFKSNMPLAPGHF

Compound | IC50
CN(C)[C@@H]1C(O)=C(C(N)=O)C(=O)[C@@]2(O)C(O)=C3C(=O)c4c(O)cccc4[C@@](C)(O)[C@H]3[C@H](O)[C@@H]12 [OXYTETRACYCLINE] | Not Active
COc1c(N2CCNC(C)C2)c(F)cc2c(=O)c(C(=O)O)cn(C3CC3)c12 (stereo unspecified) [GATIFLOXACIN] | Not Active
CC(=O)CCCCn1c(=O)c2c(ncn2C)n(C)c1=O [PENTOXIFYLLINE] | Not Active

target: Beta-3 adrenergic receptor (Homo sapiens, UniProt P13945); assay: DRUGMATRIX: Adrenergic beta3 radioligand binding (ligand: [125I] Cyanopindolol); assay type: cell membranes, HEK293, Membrane; conditions: hek293; Not Active = under 50% inhibition at 10 µM
Sequence (P13945 whole entry): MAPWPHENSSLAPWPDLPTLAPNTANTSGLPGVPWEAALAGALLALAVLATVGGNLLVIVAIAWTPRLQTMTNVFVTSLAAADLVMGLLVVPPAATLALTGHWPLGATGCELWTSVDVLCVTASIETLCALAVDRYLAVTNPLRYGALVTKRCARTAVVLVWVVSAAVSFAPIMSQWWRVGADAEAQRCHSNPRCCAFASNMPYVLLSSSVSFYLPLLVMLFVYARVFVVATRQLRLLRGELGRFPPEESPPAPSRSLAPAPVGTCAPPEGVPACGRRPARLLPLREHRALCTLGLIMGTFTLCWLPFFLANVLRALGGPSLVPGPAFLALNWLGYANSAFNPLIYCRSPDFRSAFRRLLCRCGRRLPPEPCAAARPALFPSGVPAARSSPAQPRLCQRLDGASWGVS

Compound | IC50
CN(C)[C@@H]1C(O)=C(C(N)=O)C(=O)[C@@]2(O)C(O)=C3C(=O)c4c(O)cccc4[C@@](C)(O)[C@H]3[C@H](O)[C@@H]12 [OXYTETRACYCLINE] | Not Active
COc1c(N2CCNC(C)C2)c(F)cc2c(=O)c(C(=O)O)cn(C3CC3)c12 (stereo unspecified) [GATIFLOXACIN] | Not Active
CC(=O)CCCCn1c(=O)c2c(ncn2C)n(C)c1=O [PENTOXIFYLLINE] | Not Active

tested on: not listed separately; assay: DRUGMATRIX: Calcium Channel Type L, Benzothiazepine radioligand binding (ligand: [3H] Diltiazem); assay type: cell membranes, Rattus norvegicus, Wistar, Brain, Membrane; conditions: Not Active = under 50% inhibition at 10 µM

Compound | IC50 | Ki
CN(C)[C@@H]1C(O)=C(C(N)=O)C(=O)[C@@]2(O)C(O)=C3C(=O)c4c(O)cccc4[C@@](C)(O)[C@H]3[C@H](O)[C@@H]12 [OXYTETRACYCLINE] | Not Active | Not Active
COc1c(N2CCNC(C)C2)c(F)cc2c(=O)c(C(=O)O)cn(C3CC3)c12 (stereo unspecified) [GATIFLOXACIN] | Not Active | Not Active
CC(=O)CCCCn1c(=O)c2c(ncn2C)n(C)c1=O [PENTOXIFYLLINE] | Not Active | Not Active

target: 5-hydroxytryptamine receptor 2B (Homo sapiens, UniProt P41595); assay: not given; assay type: cell membranes, CHO-K1, Membrane; conditions: cho-k1; note: in other assays of this panel Not Active means under 50% inhibition at 10 µM
Sequence (P41595 whole entry): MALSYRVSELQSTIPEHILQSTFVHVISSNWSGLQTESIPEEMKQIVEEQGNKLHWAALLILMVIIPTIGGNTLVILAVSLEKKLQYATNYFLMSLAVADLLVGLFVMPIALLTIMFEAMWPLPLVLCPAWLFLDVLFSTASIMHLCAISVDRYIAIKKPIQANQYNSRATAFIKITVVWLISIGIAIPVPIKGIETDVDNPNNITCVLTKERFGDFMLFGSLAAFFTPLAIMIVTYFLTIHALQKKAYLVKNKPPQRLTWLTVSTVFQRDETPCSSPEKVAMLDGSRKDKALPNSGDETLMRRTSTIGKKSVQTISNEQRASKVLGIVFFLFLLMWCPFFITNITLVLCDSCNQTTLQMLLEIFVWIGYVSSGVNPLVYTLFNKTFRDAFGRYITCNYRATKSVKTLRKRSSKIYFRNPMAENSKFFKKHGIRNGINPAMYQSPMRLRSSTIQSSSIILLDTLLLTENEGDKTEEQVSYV

Compound | IC50
CN(C)[C@@H]1C(O)=C(C(N)=O)C(=O)[C@@]2(O)C(O)=C3C(=O)c4c(O)cccc4[C@@](C)(O)[C@H]3[C@H](O)[C@@H]12 [OXYTETRACYCLINE] | Not Active
COc1c(N2CCNC(C)C2)c(F)cc2c(=O)c(C(=O)O)cn(C3CC3)c12 (stereo unspecified) [GATIFLOXACIN] | Not Active
CC(=O)CCCCn1c(=O)c2c(ncn2C)n(C)c1=O [PENTOXIFYLLINE] | Not Active

target: 5-hydroxytryptamine receptor 6 (Homo sapiens, UniProt P50406); assay: not given; assay type: cell membranes, HeLa, Membrane; conditions: hela; note: in other assays of this panel Not Active means under 50% inhibition at 10 µM
Sequence (P50406 whole entry): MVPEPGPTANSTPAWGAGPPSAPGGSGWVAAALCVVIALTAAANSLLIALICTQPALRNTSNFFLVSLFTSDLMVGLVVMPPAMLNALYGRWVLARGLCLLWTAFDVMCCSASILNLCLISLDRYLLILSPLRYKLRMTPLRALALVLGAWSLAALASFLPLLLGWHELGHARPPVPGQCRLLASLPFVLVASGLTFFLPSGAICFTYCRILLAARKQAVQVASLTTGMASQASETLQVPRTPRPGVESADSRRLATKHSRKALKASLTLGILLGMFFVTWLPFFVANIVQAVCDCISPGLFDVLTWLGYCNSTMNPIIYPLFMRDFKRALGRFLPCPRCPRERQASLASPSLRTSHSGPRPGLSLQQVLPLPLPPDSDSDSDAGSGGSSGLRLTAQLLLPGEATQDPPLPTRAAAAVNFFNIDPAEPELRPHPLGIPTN

Compound | IC50
CN(C)[C@@H]1C(O)=C(C(N)=O)C(=O)[C@@]2(O)C(O)=C3C(=O)c4c(O)cccc4[C@@](C)(O)[C@H]3[C@H](O)[C@@H]12 [OXYTETRACYCLINE] | Not Active
COc1c(N2CCNC(C)C2)c(F)cc2c(=O)c(C(=O)O)cn(C3CC3)c12 (stereo unspecified) [GATIFLOXACIN] | Not Active
CC(=O)CCCCn1c(=O)c2c(ncn2C)n(C)c1=O [PENTOXIFYLLINE] | Not Active

target: T2, C-X-C chemokine receptor type 2 (Homo sapiens, UniProt P25025); assay: not given; assay type: cell membranes, Membrane; conditions: cho-k1; note: in other assays of this panel Not Active means under 50% inhibition at 10 µM
T2 sequence (P25025 whole entry): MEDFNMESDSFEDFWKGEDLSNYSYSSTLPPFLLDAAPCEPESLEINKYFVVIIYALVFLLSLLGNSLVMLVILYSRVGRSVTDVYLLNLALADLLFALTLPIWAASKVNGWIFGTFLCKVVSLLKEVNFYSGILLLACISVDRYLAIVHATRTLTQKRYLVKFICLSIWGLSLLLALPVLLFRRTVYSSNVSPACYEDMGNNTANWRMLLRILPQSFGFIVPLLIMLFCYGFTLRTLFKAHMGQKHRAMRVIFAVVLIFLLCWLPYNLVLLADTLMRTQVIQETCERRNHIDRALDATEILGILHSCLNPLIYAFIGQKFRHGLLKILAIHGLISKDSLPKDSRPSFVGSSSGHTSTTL

Compound | IC50
CN(C)[C@@H]1C(O)=C(C(N)=O)C(=O)[C@@]2(O)C(O)=C3C(=O)c4c(O)cccc4[C@@](C)(O)[C@H]3[C@H](O)[C@@H]12 [OXYTETRACYCLINE] | Not Active
COc1c(N2CCNC(C)C2)c(F)cc2c(=O)c(C(=O)O)cn(C3CC3)c12 (stereo unspecified) [GATIFLOXACIN] | Not Active
CC(=O)CCCCn1c(=O)c2c(ncn2C)n(C)c1=O [PENTOXIFYLLINE] | Not Active

target: D(1A) dopamine receptor (Homo sapiens, UniProt P21728); assay: DRUGMATRIX: Dopamine D1 radioligand binding (ligand: [3H] SCH-23390); assay type: cell membranes, CHO, Membrane; conditions: cho; Not Active = under 50% inhibition at 10 µM
Sequence (P21728 whole entry): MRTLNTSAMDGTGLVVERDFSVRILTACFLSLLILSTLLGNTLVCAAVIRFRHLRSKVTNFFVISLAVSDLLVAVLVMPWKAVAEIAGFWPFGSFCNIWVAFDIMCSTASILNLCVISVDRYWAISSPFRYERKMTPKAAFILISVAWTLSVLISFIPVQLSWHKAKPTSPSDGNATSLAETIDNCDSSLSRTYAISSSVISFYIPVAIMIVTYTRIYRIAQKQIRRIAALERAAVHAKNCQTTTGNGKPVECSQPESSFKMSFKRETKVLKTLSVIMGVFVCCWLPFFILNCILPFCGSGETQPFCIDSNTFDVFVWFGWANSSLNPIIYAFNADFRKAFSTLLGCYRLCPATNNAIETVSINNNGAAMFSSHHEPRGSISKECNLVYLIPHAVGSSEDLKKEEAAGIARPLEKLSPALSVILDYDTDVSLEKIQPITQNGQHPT

Compound | IC50
CN(C)[C@@H]1C(O)=C(C(N)=O)C(=O)[C@@]2(O)C(O)=C3C(=O)c4c(O)cccc4[C@@](C)(O)[C@H]3[C@H](O)[C@@H]12 [OXYTETRACYCLINE] | Not Active
COc1c(N2CCNC(C)C2)c(F)cc2c(=O)c(C(=O)O)cn(C3CC3)c12 (stereo unspecified) [GATIFLOXACIN] | Not Active
CC(=O)CCCCn1c(=O)c2c(ncn2C)n(C)c1=O [PENTOXIFYLLINE] | Not Active

tested on: not listed separately; assay: DRUGMATRIX: GABAA, Chloride Channel, TBOB radioligand binding (ligand: [3H] TBOB); assay type: cell membranes, Rattus norvegicus, Wistar, Cerebral cortex, Membrane; conditions: Not Active = under 50% inhibition at 10 µM

Compound | IC50 | Ki
CN(C)[C@@H]1C(O)=C(C(N)=O)C(=O)[C@@]2(O)C(O)=C3C(=O)c4c(O)cccc4[C@@](C)(O)[C@H]3[C@H](O)[C@@H]12 [OXYTETRACYCLINE] | Not Active | Not Active
COc1c(N2CCNC(C)C2)c(F)cc2c(=O)c(C(=O)O)cn(C3CC3)c12 (stereo unspecified) [GATIFLOXACIN] | Not Active | Not Active
CC(=O)CCCCn1c(=O)c2c(ncn2C)n(C)c1=O [PENTOXIFYLLINE] | Not Active | Not Active

target: Histamine H2 receptor (Homo sapiens, UniProt P25021); assay: not given; assay type: cell membranes, CHO-K1, Membrane; conditions: cho-k1; note: in other assays of this panel Not Active means under 50% inhibition at 10 µM
Sequence (P25021 whole entry): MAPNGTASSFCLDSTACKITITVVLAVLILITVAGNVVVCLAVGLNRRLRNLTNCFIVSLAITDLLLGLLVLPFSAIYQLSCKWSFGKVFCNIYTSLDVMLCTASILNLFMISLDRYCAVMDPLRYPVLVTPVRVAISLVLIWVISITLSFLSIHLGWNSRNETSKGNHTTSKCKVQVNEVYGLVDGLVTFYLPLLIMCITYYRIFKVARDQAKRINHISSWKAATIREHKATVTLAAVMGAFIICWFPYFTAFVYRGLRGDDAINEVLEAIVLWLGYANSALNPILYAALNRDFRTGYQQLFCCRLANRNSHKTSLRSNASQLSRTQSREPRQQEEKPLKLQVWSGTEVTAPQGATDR

Compound | IC50
CN(C)[C@@H]1C(O)=C(C(N)=O)C(=O)[C@@]2(O)C(O)=C3C(=O)c4c(O)cccc4[C@@](C)(O)[C@H]3[C@H](O)[C@@H]12 [OXYTETRACYCLINE] | Not Active
COc1c(N2CCNC(C)C2)c(F)cc2c(=O)c(C(=O)O)cn(C3CC3)c12 (stereo unspecified) [GATIFLOXACIN] | Not Active
CC(=O)CCCCn1c(=O)c2c(ncn2C)n(C)c1=O [PENTOXIFYLLINE] | Not Active

target: T3, Polyunsaturated fatty acid lipoxygenase ALOX15 (Oryctolagus cuniculus, UniProt P12530); assay: biochemical; assay type: tissue-based, Reticulocytes; conditions: reticulocytes
T3 sequence (P12530 whole entry): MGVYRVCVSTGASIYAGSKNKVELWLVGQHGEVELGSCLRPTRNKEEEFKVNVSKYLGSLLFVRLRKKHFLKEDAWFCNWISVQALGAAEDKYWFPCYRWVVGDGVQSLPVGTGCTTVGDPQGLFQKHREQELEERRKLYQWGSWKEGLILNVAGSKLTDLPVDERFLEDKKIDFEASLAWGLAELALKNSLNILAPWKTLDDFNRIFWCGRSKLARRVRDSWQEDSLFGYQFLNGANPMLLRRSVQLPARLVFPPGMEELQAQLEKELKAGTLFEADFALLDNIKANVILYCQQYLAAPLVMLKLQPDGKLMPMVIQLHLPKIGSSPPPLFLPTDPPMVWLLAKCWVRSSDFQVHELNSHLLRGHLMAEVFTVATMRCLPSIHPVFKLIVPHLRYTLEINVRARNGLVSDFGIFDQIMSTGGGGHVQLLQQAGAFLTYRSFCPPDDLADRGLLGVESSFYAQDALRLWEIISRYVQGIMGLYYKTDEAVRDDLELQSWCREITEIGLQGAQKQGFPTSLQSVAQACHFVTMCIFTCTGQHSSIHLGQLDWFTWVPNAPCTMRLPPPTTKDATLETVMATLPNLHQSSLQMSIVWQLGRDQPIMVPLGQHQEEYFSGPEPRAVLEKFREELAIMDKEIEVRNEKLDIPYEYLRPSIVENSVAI

Compound | IC50
CN(C)[C@@H]1C(O)=C(C(N)=O)C(=O)[C@@]2(O)C(O)=C3C(=O)c4c(O)cccc4[C@@](C)(O)[C@H]3[C@H](O)[C@@H]12 [OXYTETRACYCLINE] | Not Active
COc1c(N2CCNC(C)C2)c(F)cc2c(=O)c(C(=O)O)cn(C3CC3)c12 (stereo unspecified) [GATIFLOXACIN] | Not Active
CC(=O)CCCCn1c(=O)c2c(ncn2C)n(C)c1=O [PENTOXIFYLLINE] | Not Active

target: T4, Adenosine receptor A3 (Homo sapiens, UniProt P0DMS8); assay: not given; assay type: cell membranes, CHO-K1, Membrane; conditions: cho-k1
T4 sequence (P0DMS8 whole entry): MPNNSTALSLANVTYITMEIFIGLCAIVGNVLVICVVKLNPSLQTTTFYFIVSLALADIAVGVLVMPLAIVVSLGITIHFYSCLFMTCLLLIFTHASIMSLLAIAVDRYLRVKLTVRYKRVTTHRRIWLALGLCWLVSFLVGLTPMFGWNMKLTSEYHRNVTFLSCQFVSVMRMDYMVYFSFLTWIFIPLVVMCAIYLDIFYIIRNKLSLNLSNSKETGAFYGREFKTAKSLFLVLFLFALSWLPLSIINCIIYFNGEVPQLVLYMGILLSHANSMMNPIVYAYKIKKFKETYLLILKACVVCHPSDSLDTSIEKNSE

Compound | IC50
CN(C)[C@@H]1C(O)=C(C(N)=O)C(=O)[C@@]2(O)C(O)=C3C(=O)c4c(O)cccc4[C@@](C)(O)[C@H]3[C@H](O)[C@@H]12 [OXYTETRACYCLINE] | Not Active
COc1c(N2CCNC(C)C2)c(F)cc2c(=O)c(C(=O)O)cn(C3CC3)c12 (stereo unspecified) [GATIFLOXACIN] | Not Active
CC(=O)CCCCn1c(=O)c2c(ncn2C)n(C)c1=O [PENTOXIFYLLINE] | Not Active

target: Cytochrome P450 2D6 (Homo sapiens, UniProt P10635); assay: not given; conditions: bti-tn-5b1-4; note: in other assays of this panel Not Active means under 50% inhibition at 10 µM
Sequence (P10635 whole entry): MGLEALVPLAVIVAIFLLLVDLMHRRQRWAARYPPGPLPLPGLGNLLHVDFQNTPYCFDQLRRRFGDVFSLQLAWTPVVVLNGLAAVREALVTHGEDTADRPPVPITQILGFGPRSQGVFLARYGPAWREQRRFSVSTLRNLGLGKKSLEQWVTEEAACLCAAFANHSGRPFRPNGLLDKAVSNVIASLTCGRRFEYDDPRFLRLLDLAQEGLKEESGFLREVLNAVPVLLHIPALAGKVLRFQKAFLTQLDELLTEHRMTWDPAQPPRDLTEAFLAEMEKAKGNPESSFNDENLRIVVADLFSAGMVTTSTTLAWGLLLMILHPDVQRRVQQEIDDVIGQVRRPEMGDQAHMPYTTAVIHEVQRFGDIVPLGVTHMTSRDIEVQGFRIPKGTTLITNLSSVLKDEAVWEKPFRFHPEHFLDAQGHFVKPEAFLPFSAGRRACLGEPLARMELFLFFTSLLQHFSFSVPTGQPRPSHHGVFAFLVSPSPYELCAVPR

Compound | IC50 | Ki
CN(C)[C@@H]1C(O)=C(C(N)=O)C(=O)[C@@]2(O)C(O)=C3C(=O)c4c(O)cccc4[C@@](C)(O)[C@H]3[C@H](O)[C@@H]12 [OXYTETRACYCLINE] | Not Active | Not Active
COc1c(N2CCNC(C)C2)c(F)cc2c(=O)c(C(=O)O)cn(C3CC3)c12 (stereo unspecified) [GATIFLOXACIN] | Not Active | Not Active
CC(=O)CCCCn1c(=O)c2c(ncn2C)n(C)c1=O [PENTOXIFYLLINE] | Not Active | Not Active

target: Cytochrome P450 2E1 (Homo sapiens, UniProt P05181); assay: not given; conditions: bti-tn-5b1-4; note: in other assays of this panel Not Active means under 50% inhibition at 10 µM
Sequence (P05181 whole entry): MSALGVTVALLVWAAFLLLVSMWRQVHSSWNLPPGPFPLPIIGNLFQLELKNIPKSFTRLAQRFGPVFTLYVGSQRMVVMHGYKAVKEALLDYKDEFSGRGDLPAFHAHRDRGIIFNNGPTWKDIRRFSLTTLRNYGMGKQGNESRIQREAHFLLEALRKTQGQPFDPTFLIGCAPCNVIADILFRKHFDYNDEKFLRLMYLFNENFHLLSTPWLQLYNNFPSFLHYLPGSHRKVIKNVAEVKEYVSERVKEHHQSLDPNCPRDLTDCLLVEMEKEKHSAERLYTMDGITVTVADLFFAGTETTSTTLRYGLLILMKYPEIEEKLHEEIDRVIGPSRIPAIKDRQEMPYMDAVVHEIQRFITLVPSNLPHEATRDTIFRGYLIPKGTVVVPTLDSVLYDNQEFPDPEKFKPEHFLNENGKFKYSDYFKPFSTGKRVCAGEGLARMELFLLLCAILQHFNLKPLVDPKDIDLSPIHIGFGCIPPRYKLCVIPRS

Compound | IC50 | Ki
CN(C)[C@@H]1C(O)=C(C(N)=O)C(=O)[C@@]2(O)C(O)=C3C(=O)c4c(O)cccc4[C@@](C)(O)[C@H]3[C@H](O)[C@@H]12 [OXYTETRACYCLINE] | Not Active | Not Active
COc1c(N2CCNC(C)C2)c(F)cc2c(=O)c(C(=O)O)cn(C3CC3)c12 (stereo unspecified) [GATIFLOXACIN] | Not Active | Not Active
CC(=O)CCCCn1c(=O)c2c(ncn2C)n(C)c1=O [PENTOXIFYLLINE] | Not Active | Not Active
